# Activity calls are given as the source filed them. No cut-off for these calls is given here.
# Key:
# [1] = tested on: Cryptococcus neoformans; assay: microbe, parasite or virus in culture; type: functional, organism-based; conditions: H99, 72 h
# Description: Anti-cryptococcal activity against Cryptococcus neoformans H99 assessed as inhibition of fungal growth incubated for 72 hrs by microdilution method
# [2] = tested on: Pichia kudriavzevii; assay: microbe, parasite or virus in culture; type: functional, organism-based; conditions: Pichia kudriavzevii, 10153, 48 h
# Description: Antifungal activity against Candida krusei 10153 assessed as inhibition of fungal growth incubated for 48 hrs by microdilution method
# [3] = tested on: Aspergillus fumigatus; assay: microbe, parasite or virus in culture; type: functional, organism-based; conditions: Aspergillus fumigatus, 7544, 48 h
# Description: Antifungal activity against Aspergillus fumigatus 7544 assessed as inhibition of fungal growth incubated for 48 hrs by microdilution method
# [4] = tested on: Candida tropicalis; assay: microbe, parasite or virus in culture; type: functional, organism-based; conditions: Candida tropicalis, 10186, 48 h
# Description: Antifungal activity against Candida tropicalis 10186 assessed as inhibition of fungal growth incubated for 48 hrs by microdilution method
# [5] = tested on: Cryptococcus neoformans; assay: Inhibition of Cryptococcus neoformans H99 delta5,6-desaturase assessed as increase in ergosta-7,22-dien-3-ol levels at 0.125 to 2 ug/ml incubated for 24 hrs by GC-MS analysis; conditions: dose 0.125-2 µg/ml, DDE = dose-dependent effect
# [6] = […] in ICR mouse model of Cryptococcal meningitis infected with Cryptococcus neoformans H99 assessed as median survival time at 15 mg/kg, IG administered daily (reference value: 11 day); type: organism-based; conditions: in vivo, po, 264 h
# [7] = tested on: Cryptococcus neoformans; assay: Fungicidal activity against Cryptococcus neoformans H99 assessed as fungal growth inhibition incubated upto 72 hrs by time-fungicidal curve assay; type: functional
# [8] = tested on: Cryptococcus neoformans; assay: Inhibition of Cryptococcus neoformans H99 delta5,6-desaturase assessed as upregulation of ERG4 gene expression at 2 ug/ml incubated for 24 hrs by RT-PCR analysis; conditions: dose 2.0 µg/ml
# [9] = tested on: Cryptococcus neoformans; assay: Inhibition of biofilm formation in Cryptococcus neoformans H99 at 2 ug/ml incubated for 24 hrs by XTT reduction assay; type: functional
# [10] = tested on: Cryptococcus neoformans; assay: Inhibition of Cryptococcus neoformans H99 delta5,6-desaturase assessed as change in sterol content at 2 ug/ml incubated for 24 hrs by GC-MS analysis; conditions: dose 2.0 µg/ml
# [11] = Metabolic stability in mouse liver microsomes assessed as half life; type: ADME, Microsome
# [12] = Cytotoxicity against HUVEC cells; conditions: human
# [13] = tested on: Candida albicans; assay: Antifungal activity against Candida albicans SC3514 assessed as decrease in ergosterol content at 2 ug/ml incubated for 24 hrs in presence of NADPH by GC-MS analysis; type: functional, organism-based; conditions: dose 2.0 µg/ml
# [14] = tested on: Candida albicans; assay: microbe, parasite or virus in culture; type: functional, organism-based; conditions: Candida albicans, 904, 48 h
# Description: Antifungal activity against Candida albicans 904 assessed as inhibition of fungal growth incubated for 48 hrs by microdilution method
# [15] = tested on: Cryptococcus neoformans; assay: Inhibition of Cryptococcus neoformans H99 delta5,6-desaturase assessed as upregulation of ERG3 under stress condition at 0.25 to 1 ug/ml incubated for 24 hrs by RT-PCR analysis; conditions: dose 0.25-1 µg/ml, DDE = dose-dependent effect
# [16] = tested on: Cryptococcus neoformans; assay: Inhibition of Cryptococcus neoformans H99 delta5,6-desaturase assessed as blockade of ergosterol biosynthesis at 0.5 ug/ml pretreated with ERG enzymes followed by compound addition incubated for 24 hrs in presence of NADPH by GC-MS analysis; conditions: dose 0.5 µg/ml
# [17] = microbe, parasite or virus in culture; type: functional; conditions: Cryptococcus; time 72 hrs
# Description: Anti-cryptococcal activity against Cryptococcus assessed as inhibition of fungal growth incubated for 72 hrs by microdilution method
# [18] = tested on: Cryptococcus neoformans; assay: Inhibition of Cryptococcus neoformans H99 delta5,6-desaturase assessed as upregulation of ERG5 gene expression at 2 ug/ml incubated for 24 hrs by RT-PCR analysis; conditions: dose 2.0 µg/ml
# [19] = tested on: Cryptococcus neoformans; assay: Anti-cryptococcal activity against Cryptococcus neoformans H99 assessed as cell membrane damage at 0.5 to 4 ug/ml incubated for 8 hrs by transmission electron microscopy; type: functional, organism-based; conditions: dose 0.5-4 µg/ml, DDE = dose-dependent effect
# [20] = tested on: Cryptococcus neoformans; assay: Inhibition of Cryptococcus neoformans H99 delta5,6-desaturase assessed as decrease in ergosterol level at 1 ug/ml incubated for 24 hrs by GC-MS analysis; conditions: dose 1.0 µg/ml
# [21] = tested on: Cryptococcus neoformans; assay: Inhibition of biofilm formation in Cryptococcus neoformans H99 at 0.5 to 8 ug/ml incubated for 24 hrs by XTT reduction assay; type: functional, organism-based; conditions: dose 0.5-8 µg/ml, DDE = dose-dependent effect
# [22] = tested on: Cryptococcus neoformans; assay: Anti-cryptococcal activity against Cryptococcus neoformans H99 assessed as inhibition of fungal growth at 8 ug/ml measured after 72 hrs by time-growth curve assay; type: functional; design: scale not given: the % may be the effect or the level left; conditions: dose 8 µg/ml
# [23] = tested on: Cryptococcus neoformans; assay: Inhibition of Cryptococcus neoformans H99 delta5,6-desaturase assessed as upregulation of ERG2 gene expression at 2 ug/ml incubated for 24 hrs by RT-PCR analysis; conditions: dose 2.0 µg/ml
# [24] = tested on: Candida albicans; assay: microbe, parasite or virus in culture; type: functional, organism-based; conditions: SC5314, 48 h
# Description: Antifungal activity against Candida albicans SC5314 assessed as inhibition of fungal growth incubated for 48 hrs by microdilution method
# [25] = Metabolic stability in mouse liver microsomes assessed as clearance; type: ADME, Microsome
# [26] = tested on: Cryptococcus neoformans; assay: Anti-cryptococcal activity against Cryptococcus neoformans H99 assessed as efflux of cell contents at 4 ug/ml incubated for 8 hrs by transmission electron microscopy; type: functional, organism-based; conditions: dose 4.0 µg/ml
# [27] = tested on: [Candida] auris; assay: microbe, parasite or virus in culture; type: functional, organism-based; conditions: Candidozyma auris, 0029, 48 h
# Description: Antifungal activity against Candida auris 0029 assessed as inhibition of fungal growth incubated for 48 hrs by microdilution method
# [28] = tested on: Candida albicans; assay: microbe, parasite or virus in culture; type: functional, organism-based; conditions: Candida albicans, 0304103, 48 h
# Description: Antifungal activity against Candida albicans 0304103 assessed as inhibition of fungal growth incubated for 48 hrs by microdilution method
# [29] = tested on: Candida albicans; assay: Upregulation of ERG3 in Candida albicans SC3514 at 0.5 ug/ml incubated for 24 hrs by RT-PCR analysis; type: functional; conditions: dose 0.5 µg/ml
# [30] = tested on: Cryptococcus neoformans; assay: Anti-cryptococcal activity against Cryptococcus neoformans H99 assessed as cell membrane damage at 4 ug/ml incubated for 8 hrs by transmission electron microscopy; type: functional, organism-based; conditions: dose 4.0 µg/ml
# [31] = tested on: Cryptococcus neoformans; assay: Inhibition of Cryptococcus neoformans H99 delta5,6-desaturase assessed as upregulation of ERG3 gene expression at 2 ug/ml incubated for 24 hrs by RT-PCR analysis; conditions: dose 2.0 µg/ml
# [32] = tested on: Aspergillus fumigatus; assay: microbe, parasite or virus in culture; type: functional, organism-based; conditions: 023-2, 48 h
# Description: Antifungal activity against Aspergillus fumigatus 023-2 assessed as inhibition of fungal growth incubated for 48 hrs by microdilution method
# [33] = tested on: Nakaseomyces glabratus; assay: microbe, parasite or virus in culture; type: functional, organism-based; conditions: Nakaseomyces glabratus, 9025, 48 h
# Description: Antifungal activity against Candida glabrata 9025 assessed as inhibition of fungal growth incubated for 48 hrs by microdilution method
# [34] = tested on: Nakaseomyces glabratus; assay: microbe, parasite or virus in culture; type: functional, organism-based; conditions: Nakaseomyces glabratus, 9073, 48 h
# Description: Antifungal activity against Candida glabrata 9073 assessed as inhibition of fungal growth incubated for 48 hrs by microdilution method
# [35] = tested on: Candida albicans; assay: Upregulation of ERG11 in Candida albicans SC3514 at 0.5 ug/ml incubated for 24 hrs by RT-PCR analysis; type: functional; conditions: dose 0.5 µg/ml
# [36] = tested on: Candida albicans; assay: Antifungal activity against Candida albicans SC3514 assessed as low level of ergosta-7,22-dien-3-ol at 2 ug/ml incubated for 24 hrs in presence of NADPH by GC-MS analysis; type: functional, organism-based; conditions: dose 2.0 µg/ml
# [37] = tested on: Cryptococcus neoformans; assay: Inhibition of Cryptococcus neoformans H99 delta5,6-desaturase assessed as upregulation of ERG24 gene expression at 2 ug/ml incubated for 24 hrs by RT-PCR analysis; conditions: dose 2.0 µg/ml
# [38] = tested on: Cryptococcus neoformans; assay: Inhibition of Cryptococcus neoformans H99 delta5,6-desaturase assessed as upregulation of ERG1 gene expression at 2 ug/ml incubated for 24 hrs by RT-PCR analysis; conditions: dose 2.0 µg/ml
# [39] = tested on: Cryptococcus; assay: Fungicidal activity against Cryptococcus assessed as ratio of MFC to MIC; type: functional
# [40] = tested on: [Candida] auris; assay: Antifungal activity against Candida auris 15448 assessed as inhibition of fungal growth incubated for 48 hrs by microdilution method; type: functional, organism-based; conditions: Candidozyma auris, 15448, 48 h
# [41] = tested on: Cryptococcus neoformans; assay: Inhibition of Cryptococcus neoformans H99 delta5,6-desaturase assessed as upregulation of ERG11 at 0.25 to 1 ug/ml incubated for 24 hrs by RT-PCR analysis; conditions: dose 0.25-1 µg/ml, DDE = dose-dependent effect
# [42] = tested on: Cryptococcus neoformans; assay: Anti-cryptococcal activity against Cryptococcus neoformans H99 assessed as inhibition of fungal growth at 1 ug/ml measured after 72 hrs by time-growth curve assay; type: functional, organism-based; conditions: dose 1.0 µg/ml
# [43] = tested on: Cryptococcus neoformans; assay: Inhibition of Cryptococcus neoformans H99 delta5,6-desaturase assessed as upregulation of ERG11 gene expression at 2 ug/ml incubated for 24 hrs by RT-PCR analysis; conditions: dose 2.0 µg/ml
# [44] = tested on: Cryptococcus neoformans; assay: Inhibition of Cryptococcus neoformans H99 delta5,6-desaturase assessed as blockade of ergosterol biosynthesis pretreated at 3 ug/ml followed by addition of ERG enzymes incubated for 24 hrs in presence of NADPH by GC-MS analysis; conditions: dose 3.0 µg/ml
# [45] = tested on: [Candida] auris; assay: microbe, parasite or virus in culture; type: functional, organism-based; conditions: Candidozyma auris, 0030, 48 h
# Description: Antifungal activity against Candida auris 0030 assessed as inhibition of fungal growth incubated for 48 hrs by microdilution method
structure (smiles),measurement,setting,value
Cc1ccc(C2CCC(NCCC3CCCCC3)c3ccsc32)cc1C.Cl (stereo not given),IC50,[1],32 µg/mL
Cl.Clc1ccc(C2CCC(NCCC3CCCCC3)c3ccsc32)cc1 (stereo not given),IC50,[1],64 µg/mL
Cl.O=C(CNC1CCC(c2ccc(Cl)c(Cl)c2)c2sccc21)N1CCCCC1 (stereo not given),IC50,[1],8 µg/mL
Cl.Clc1ccc(C2CCC(NCCCC3CCCCC3)c3ccsc32)cc1Cl (stereo not given),IC50,[1],2 µg/mL
Cl.Clc1ccc(C2CCC(NC3CCCCC3)c3ccsc32)cc1Cl (stereo not given),IC50,[1],8 µg/mL
Cl.Clc1ccc(C2CCC(NCCC3CCOCC3)c3ccsc32)cc1Cl (stereo not given),IC50,[2],8 µg/mL
same,IC50,[3],32 µg/mL
same,IC50,[4],32 µg/mL
same,Activity,[5],Dde
same,MST,[6],14 days
same,MFC,[7],8 µg/mL
same,Activity,[8],Active
same,inhibition at 2 µg/mL,[9],50%
same,Activity,[10],Active
same,half-life,[11],40.1 min
same,IC50,[12],20.2 µM
same,Activity,[13],Active
same,IC50,[14],32 µg/mL
same,Activity,[15],Dde
same,Activity,[16],Active
same,MIC50,[17],0.62 µg/mL
same,Activity,[18],Active
same,Activity,[19],Dde
same,Activity,[20],Active
same,inhibition,[21],Dde
same,Activity,[22],100%
same,Activity,[23],Active
same,IC50,[1],0.5 µg/mL
same,IC50,[24],32 µg/mL
same,CLH,[25],136 µL/min/mg
same,Activity,[26],Active
same,IC50,[27],16 µg/mL
same,IC50,[28],32 µg/mL
same,Activity,[29],Active
same,Activity,[30],Active
same,Activity,[31],Active
same,IC50,[32],32 µg/mL
same,IC50,[33],8 µg/mL
same,IC50,[34],32 µg/mL
same,Activity,[35],Active
same,Activity,[36],Active
same,Activity,[37],Active
same,Activity,[38],Active
same,Ratio,[39],7.47
same,IC50,[40],8 µg/mL
same,Activity,[41],Dde
same,Activity,[42],Active
same,Activity,[43],Active
same,Activity,[44],Active
same,IC50,[45],8 µg/mL

# — ChEMBL document CHEMBL5154781, “Discovery of Novel Sertraline Derivatives as Potent Anti-Cryptococcus Agents” (J Med Chem, 2022)
